Laboratory results as given in US6726911B1, “Biologically active compounds of Ganoderma pfeifferi DSM 13239” (Ganomycin, priority 1999, dated 2004).
Where two headings read alike, the source gives them in different places.

What was measured:
[1] = tested on: human hepatoma cells (PLC/PRF/5 cells); details: Hager, reference 66; cited from earlier work
[2] = tested on: KB cells; details: Hager, reference 66; cited from earlier work
[3] = tested on: peritoneal mast cells of rats; details: 2 mg/ml; Hager, reference 31; cited from earlier work
[4] = target: angiotensin-converting enzyme (Homo sapiens, UniProt P12821); details: in vitro; Hager, reference 39; cited from earlier work
[5] = tested on: S. haemolyticus; assay: agar diffusion test on pathogens of Gram-positive infections; details: S. haemolyticus (multiresistant strains isolated from patient material)
Experimental: (§1) In the first stage of examination, the agar diffusion test was employed. The extracts and substances to be tested were respectively dissolved using appropriate solvents (dichloromethane, methanol and water) and applied to filter paper sheets in different concentrations. Comparative sheets soaked with 25 μl of the corresponding solvent served as a control. Ampicillin (10 μg/sheet) was employed as a reference substance. The dried filter paper sheets were finally placed onto agar plates. For the basic screening, nutrient agar II (VEB Immunpraparate, Berlin, Germany) was employed, and for the examination on strains isolated from patient material, Mueller-Hinton II agar (Becton Dickinson Microbiology Systems, Cockeysville, USA) was employed. Using an inoculation wire loop, a pinheadful of test germ culture was suspended in 3 ml of a sterile 0.90% NaCl solution. Subsequently, 200 μl of the germ suspension was added to 20 ml of sterile, liquefied and slightly warm nutrient agar and cast into Petri dishes having a diameter of 10 cm. After placing the sheets onto the congealed agar, the plates were preincubated at 8° C. for about 2 to 3 hours, followed by incubation of the plates in an incubator at 37° C. for 24 hours. Micrococcus flavus was an exception. This culture was stored only at room temperature because the germ reaches its optimum growth at 20° C. […]

[6] = tested on: Aeromonas hydrophila DSM 30019; assay: agar diffusion test on fish-pathogenic bacteria; format: cell-based
[7] = tested on: Enterococci; assay: agar diffusion test on pathogens of Gram-positive infections; details: Enterococci (multiresistant strains isolated from patient material)
Experimental: as §1

[8] = tested on: S. aureus; assay: agar diffusion test
Experimental: In the first stage of examination, the agar diffusion test was employed. The extracts and substances to be tested were respectively dissolved using appropriate solvents (dichloromethane, methanol and water) and applied to filter paper sheets in different concentrations. Comparative sheets soaked with 25 μl of the corresponding solvent served as a control. Ampicillin (10 μg/sheet) was employed as a reference substance. The dried filter paper sheets were finally placed onto agar plates. For the basic screening, nutrient agar II (VEB Immunpraparate, Berlin, Germany) was employed, and for the examination on strains isolated from patient material, Mueller-Hinton II agar (Becton Dickinson Microbiology Systems, Cockeysville, USA) was employed. Using an inoculation wire loop, a pinheadful of test germ culture was suspended in 3 ml of a sterile 0.90% NaCl solution. Subsequently, 200 μl of the germ suspension was added to 20 ml of sterile, liquefied and slightly warm nutrient agar and cast into Petri dishes having a diameter of 10 cm. After placing the sheets onto the congealed agar, the plates were preincubated at 8° C. for about 2 to 3 hours, followed by incubation of the plates in an incubator at 37° C. for 24 hours. Micrococcus flavus was an exception. This culture was stored only at room temperature because the germ reaches its optimum growth at 20° C.
The evaluation of the plates was effected by measuring the diameters of the inhibition halos. All operations were done under aseptic conditions.

[9] = tested on: Vibrio anguillarum ATCC 1188; assay: agar diffusion test on fish-pathogenic bacteria; format: cell-based
[10] = tested on: Aeromonas salmonicida subsp. salmonicida 67 A 1; assay: agar diffusion test on fish-pathogenic bacteria; format: cell-based
[11] = tested on: oxygen free-radical release; assay: free-radical scavenging by luminol chemiluminescence in zymosan-stimulated human blood; format: cell-based; details: 10 μg/ml
Experimental: The proof was established as follows:
A: […] was preincubated with […] of PBS+luminol (0.33 mM final) at 37° C. for 20 min.
B: 30 μl of human blood was preincubated with […] of PBS+luminol (0.33 mM final) and […] of substance dilution at 37° C. for 20 min.
To A was pipetted 20 μl of a 1:100 dilution of the extract of Example 11 and 20 μl of zymosan (10 mg/ml).
To B was pipetted 20 μl of zymosan (10 mg/ml).
As a control, PBS was used instead of zymosan as a stimulator with and without substance in charges A and B. After intensive mixing, the kinetics of the luminescence were measured over 60 min. The examinations were performed on two different days with blood from two different blood donors.
Methods: The free-radical scavenging function of the active substances of formula 1, ganomycin A and ganomycin B, broadens the possibilities of medicinal use. The proof was established as in the examination of the extracts according to Example 48.

[12] = target: T1, CD-14 receptor (Homo sapiens, UniProt P08571); assay: serum-mediated binding of FITC-labeled lipopolysaccharide to CD-14 transfected Chinese hamster ovary cell lines; format: cell-based; details: CD14+ cells
T1 construct: expressed in transfected cells; host or cells: Chinese hamster ovary cell lines
T1 sequence (P08571 20-345): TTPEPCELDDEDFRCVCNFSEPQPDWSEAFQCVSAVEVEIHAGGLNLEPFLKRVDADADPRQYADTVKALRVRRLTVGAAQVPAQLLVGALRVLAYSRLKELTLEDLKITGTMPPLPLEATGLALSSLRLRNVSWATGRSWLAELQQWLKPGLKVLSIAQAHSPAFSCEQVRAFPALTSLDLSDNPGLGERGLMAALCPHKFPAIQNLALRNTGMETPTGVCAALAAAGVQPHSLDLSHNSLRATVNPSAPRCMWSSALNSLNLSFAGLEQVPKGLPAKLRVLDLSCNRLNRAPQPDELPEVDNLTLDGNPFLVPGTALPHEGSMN
Experimental: Methods: The test was performed according to Grunwald (CD-14 als Rezeptor für Endotoxin: in vitro-Untersuchungen zu Bindungsmodalitaten von LPS und zur Beeinflussung der Expression. Dissertation Ernst-Moritz-Arndt-Universität Greifswald 1993). For the tests, cell lines from ovaries of Chinese hamsters were used which express the CD-14 receptor after transfection of the CD-14 gene. The lipopolysaccharide was labeled with FITC so that the binding to the receptor could be determined by measuring the fluorescence intensity.

[13] = tested on: S. epidermidis
Experimental: Methods: Extracts according to Example 9 in a concentration of 2 mg/l were dropped onto standardized test plates for the resistance assay for the commercially available antibiotics amicazin, trimethroprim and fusidinic acid (Sensi-Disk Antibiotics Test Plates, Becton Dickinson Microbiology Systems, Cockeysville, USA). The antibacterial activity was determined according to Example 1 on multiresistant coagulase-negative staphylococci isolated from patient material.

[14] = tested on: influenza virus type A; assay: antiviral activity

Chain of angiotensin-converting enzyme (P12821 30-1306, species assumed): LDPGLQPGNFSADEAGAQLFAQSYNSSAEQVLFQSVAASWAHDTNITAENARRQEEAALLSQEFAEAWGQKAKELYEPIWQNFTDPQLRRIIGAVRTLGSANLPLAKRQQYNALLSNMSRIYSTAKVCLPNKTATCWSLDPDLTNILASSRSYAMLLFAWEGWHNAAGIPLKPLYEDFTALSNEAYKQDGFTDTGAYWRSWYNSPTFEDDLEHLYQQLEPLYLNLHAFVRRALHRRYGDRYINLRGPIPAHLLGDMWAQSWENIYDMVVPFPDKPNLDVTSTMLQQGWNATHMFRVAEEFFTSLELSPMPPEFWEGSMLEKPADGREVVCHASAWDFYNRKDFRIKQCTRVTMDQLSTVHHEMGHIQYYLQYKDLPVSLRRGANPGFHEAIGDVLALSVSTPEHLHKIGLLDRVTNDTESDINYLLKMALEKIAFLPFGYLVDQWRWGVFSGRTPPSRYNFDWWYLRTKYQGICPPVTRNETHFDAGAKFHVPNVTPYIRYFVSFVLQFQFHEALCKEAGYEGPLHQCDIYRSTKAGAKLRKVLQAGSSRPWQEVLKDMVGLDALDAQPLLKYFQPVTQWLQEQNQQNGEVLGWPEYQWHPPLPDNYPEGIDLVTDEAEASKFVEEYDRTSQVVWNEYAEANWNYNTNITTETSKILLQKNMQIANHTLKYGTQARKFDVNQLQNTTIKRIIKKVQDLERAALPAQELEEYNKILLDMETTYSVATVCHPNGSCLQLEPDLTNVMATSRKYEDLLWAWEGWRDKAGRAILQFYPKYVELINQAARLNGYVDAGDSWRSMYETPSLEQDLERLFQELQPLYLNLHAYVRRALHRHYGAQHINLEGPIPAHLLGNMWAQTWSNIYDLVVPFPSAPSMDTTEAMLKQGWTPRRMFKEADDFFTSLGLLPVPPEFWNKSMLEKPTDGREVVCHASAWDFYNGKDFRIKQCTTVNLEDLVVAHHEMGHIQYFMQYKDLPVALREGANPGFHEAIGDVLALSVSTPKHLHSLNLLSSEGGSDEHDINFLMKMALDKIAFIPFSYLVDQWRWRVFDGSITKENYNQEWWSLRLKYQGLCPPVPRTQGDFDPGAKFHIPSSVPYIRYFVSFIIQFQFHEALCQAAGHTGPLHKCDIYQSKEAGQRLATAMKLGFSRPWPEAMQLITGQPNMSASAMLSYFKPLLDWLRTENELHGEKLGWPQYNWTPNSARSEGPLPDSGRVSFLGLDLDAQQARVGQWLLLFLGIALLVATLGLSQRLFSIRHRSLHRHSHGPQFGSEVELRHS

Molecule: ganoderaldehyde A
- ED50 for the hepatoma cells [1]: 10.99 mg/L
- ED50 for KB cells [2]: 9.75 mg/L

Molecule: ganoderic acid C
- reduction of 48/80-induced histamine release [3]: 70%
- reduction of Con-A-induced histamine release [3]: 85%

Molecule: CC(=O)O[C@@H]1C(=O)C2=C(C(=O)C[C@H]3C(C)(C)C(=O)CC[C@]23C)[C@]2(C)C(=O)C[C@H]([C@H](C)CC(=O)CC(C)C(=O)O)[C@@]12C (some centres unmarked) [ganoderic acid F]
- IC50 [4]: 4.7 µM

Molecule: CC(C)[C@@H](C)C=C[C@@H](C)[C@H]1CC[C@H]2C3=CCC4C[C@H](O)[C@@H](O)C[C@]4(C)[C@@]3(O)CC[C@]12C (stereo partly drawn) [ergosta-7,22-diene-2β,3α,9α-triol]
- ED50 for the hepatoma cells [1]: 1170 mg/L
- ED50 for KB cells [2]: 0.89 mg/L

Molecule: CC(C)=CCCC(C)=CCCC(=CCc1cc(O)ccc1O)C(=O)O [Ganomycin B, 2-[2-(2,5-dihydroxyphenyl)ethylidene]-6,10-dimethylundeca-5,9-dienic acid]
- Inhibition halo [5]: 12-16 mm
- Diameter of inhibition halo [6]: 17 mm
- Inhibition halo [7]: 10-14 mm
- Inhibition halo ([8]; S. aureus (MRSA strains isolated from patient material)): 10-16 mm
- Inhibition halo ([8]; S. aureus ATCC 6538): 30 mm
- Inhibition halo ([8]; S. aureus ATCC 25923): 25 mm
- Inhibition halo ([8]; S. aureus ATCC 29213): 22 mm
- Inhibition halo ([8]; S. aureus reference strain “North-German Strain” (Smith Kline Beecham)): 16 mm
- Diameter of inhibition halo [9]: 26 mm
- Diameter of inhibition halo [10]: 12 mm
- luminol-induced and spontaneous oxygen free-radical release [11]: inhibit
- inhibition of the lipopolysaccharide binding (in words) [12]: causes inhibition
- Inhibition halo ([13]; S. epidermidis 125, extract 2 mg/l dropped onto antibiotic test plates): 16 mm
- Inhibition halo ([13]; S. epidermidis 473, extract 2 mg/l dropped onto antibiotic test plates): 20 mm
- Inhibition halo ([13]; S. epidermidis 847, extract 2 mg/l dropped onto antibiotic test plates): 16 mm
- Inhibition halo ([13]; S. epidermidis (multiresistant strains isolated from patient material)): 16-20 mm

Molecule: CC(=CCCC(C)=CCCC(=CCc1cc(O)ccc1O)C(=O)O)CO [Ganomycin A, 2-[2-(2,5-dihydroxyphenyl)ethylidene]-11-hydroxy-6,10-dimethylundeca-5,9-dienic acid]
- Diameter of inhibition halo [6]: 15 mm
- Diameter of inhibition halo [9]: 10 mm
- Diameter of inhibition halo [10]: 10 mm
- luminol-induced and spontaneous oxygen free-radical release [11]: inhibit
- inhibition of the lipopolysaccharide binding (in words) [12]: causes inhibition

Molecule: CC(CC(=O)C[C@@H](C)[C@H]1CC(=O)[C@@]2(C)C3=C(C(=O)C[C@]12C)[C@@]1(C)CCC(=O)C(C)(C)[C@@H]1C[C@@H]3O)C(=O)O (some centres unmarked) [ganoderic acid D]
- reduction of 48/80-induced histamine release [3]: 80%
- reduction of Con-A-induced histamine release [3]: 80%

Molecule: C/C(=C\CC[C@@H](C)[C@H]1CC[C@@]2(C)C3=C(CC[C@]12C)[C@@]1(C)CC[C@H](O)C(C)(C)[C@@H]1CC3=O)CO [Ganoderone B, 3,26-dihydroxylanosta-8,24-diene-7-one]
- inhibition of the lipopolysaccharide binding (in words) [12]: inhibits
- antiviral activity against influenza virus type A [14]: has antiviral activity
